Experimental data reported in publication PMC8286840, “Identifying SARS-CoV-2 antiviral compounds by screening for small molecule inhibitors of Nsp3 papain-like protease” (Biochemical Journal, 2021).
Where a name gives a salt, the structure may show the parent alone. Read-outs that look alike come from different tables or passages of the source.

How the values were obtained:
[1] = biological target: T1, SARS-CoV-2 PLpro (nsp3 1564–1878) (Severe acute respiratory syndrome coronavirus 2, UniProt P0DTD1); test: biochemical; design: FRET-quenched peptide (Pro3) cleavage by PLpro, 10 min pre-incubation, slope over 20 min, normalised to no-compound control; conditions: low concentration screen, read-out: % of control remaining
[2] = biological target: T1, SARS-CoV-2 PLpro (nsp3 1564–1878); test: biochemical; design: FRET-quenched peptide (Pro3) cleavage by PLpro, 10 min pre-incubation, slope over 20 min, normalised to no-compound control; conditions: high concentration screen, read-out: % of control remaining

CCN(CC)CCOc1ccc(C(=C(Cl)c2ccccc2)c2ccccc2)cc1 [Clomiphene]
remaining activity at 1.25 µM ([1]; Well no.=2273): 96.5% | remaining activity at 3.75 µM ([2]; Well no.=2273): 96.3%

CN(C)CCCN1c2ccccc2CCc2ccc(Cl)cc21 [Clomipramine hydrochloride]
remaining activity at 1.25 µM ([1]; Well no.=328): 101% | remaining activity at 3.75 µM ([2]; Well no.=328): 98.6%

Clc1cccc(Cl)c1NC1=NCCN1 [Clonidine (hydrochloride)]
remaining activity at 1.25 µM ([1]; Well no.=6755): 99.8% | remaining activity at 3.75 µM ([2]; Well no.=6755): 98.3%

Clc1cccc(Cl)c1NC1=NCCN1 [Clonidine hydrochloride]
remaining activity at 1.25 µM ([1]; Well no.=138): 95.3% | remaining activity at 3.75 µM ([2]; Well no.=138): 98.8%

Clc1cccc(Cl)c1NC1=NCCN1 [Clonidine.HCl]
remaining activity at 1.25 µM ([1]; Well no.=1691): 96% | remaining activity at 3.75 µM ([2]; Well no.=1691): 94.2%

C[C@@H]1CCC[C@H](C)N1NC(=O)c1ccc(Cl)c(S(N)(=O)=O)c1 [Clopamide]
remaining activity at 1.25 µM ([1]; Well no.=1773): 96% | remaining activity at 3.75 µM ([2]; Well no.=1773): 93.8%

COC(=O)[C@H](c1ccccc1Cl)N1CCc2sccc2C1 [Clopidogrel (hydrogen sulfate)]
remaining activity at 1.25 µM ([1]; Well no.=7563): 95.7% | remaining activity at 1.25 µM ([1]; Well no.=7926): 95.8% | remaining activity at 3.75 µM ([2]; Well no.=7563): 96.5% | remaining activity at 3.75 µM ([2]; Well no.=7926): 98.2%

COC(=O)[C@H](c1ccccc1Cl)N1CCC2SC(=O)C=C2C1 (stereo partly shown) [Clopidogrel thiolactone]
remaining activity at 1.25 µM ([1]; Well no.=8562): 95.8% | remaining activity at 3.75 µM ([2]; Well no.=8562): 95.5%

COC(=O)[C@H](c1ccccc1Cl)N1CCc2sccc2C1 [Clopidogrel]
remaining activity at 1.25 µM ([1]; Well no.=2277): 90.2% | remaining activity at 3.75 µM ([2]; Well no.=2277): 93%

C#CCN(C)CCCOc1ccc(Cl)cc1Cl [Clorgyline hydrochloride]
remaining activity at 1.25 µM ([1]; Well no.=878): 101% | remaining activity at 3.75 µM ([2]; Well no.=878): 102%

Nc1cc(C(Cl)=C(Cl)Cl)c(S(N)(=O)=O)cc1S(N)(=O)=O [Clorsulon]
remaining activity at 1.25 µM ([1]; Well no.=5298): 87.3% | remaining activity at 1.25 µM ([1]; Well no.=7310): 99.9% | remaining activity at 3.75 µM ([2]; Well no.=5298): 87.7% | remaining activity at 3.75 µM ([2]; Well no.=7310): 97.7%

CN1CCN(C2=Nc3ccccc3Sc3ccc(Cl)cc32)CC1 [Clothiapine]
remaining activity at 1.25 µM ([1]; Well no.=1815): 102% | remaining activity at 3.75 µM ([2]; Well no.=1815): 99.6%

Clc1ccccc1C(c1ccccc1)(c1ccccc1)n1ccnc1 [Clotrimazole]
remaining activity at 1.25 µM ([1]; Well no.=372): 97.9% | remaining activity at 3.75 µM ([2]; Well no.=372): 99.9%

Cc1onc(-c2ccccc2Cl)c1C(=O)N[C@@H]1C(=O)N2[C@@H]1SC(C)(C)[C@@H]2C(=O)O [Cloxacillin (sodium monohydrate)]
remaining activity at 1.25 µM ([1]; Well no.=7556): 101% | remaining activity at 3.75 µM ([2]; Well no.=7556): 103%

CN1CCN(C2=Nc3cc(Cl)ccc3Nc3ccccc32)CC1 [Clozapine]
remaining activity at 1.25 µM ([1]; Well no.=182): 99.6% | remaining activity at 1.25 µM ([1]; Well no.=1813): 98.4% | remaining activity at 1.25 µM ([1]; Well no.=6569): 98.5% | remaining activity at 3.75 µM ([2]; Well no.=182): 96.2% | remaining activity at 3.75 µM ([2]; Well no.=1813): 95.3% | remaining activity at 3.75 µM ([2]; Well no.=6569): 97.3%

CC(C)c1nc(CN(C)C(=O)N[C@@H](CCN2CCOCC2)C(=O)N[C@H](CC[C@H](Cc2ccccc2)NC(=O)OCc2cncs2)Cc2ccccc2)cs1 [Cobicistat (GS-9350)]
remaining activity at 1.25 µM ([1]; Well no.=5213): 102% | remaining activity at 3.75 µM ([2]; Well no.=5213): 102%

COc1ccc(/C=C\c2cc(OC)c(OC)c(OC)c2)cc1O [Combretastatin A4]
remaining activity at 1.25 µM ([1]; Well no.=5540): 101% | remaining activity at 3.75 µM ([2]; Well no.=5540): 102%

CCN1C[C@]2(COC)CC[C@H](O)[C@]34C1C(C[C@H]23)[C@@]1(O)C[C@H](OC)[C@H]2C[C@@H]4[C@@H]1[C@H]2OC(C)=O [Condelphine]
remaining activity at 1.25 µM ([1]; Well no.=3107): 93.3% | remaining activity at 3.75 µM ([2]; Well no.=3107): 92.8%

C[C@H]1[C@H]2CC[C@H]3[C@@H]4CC=C5C[C@@H](N(C)C)CC[C@]5(C)[C@H]4CC[C@]23CN1C [Conessine]
remaining activity at 1.25 µM ([1]; Well no.=3100): 94% | remaining activity at 3.75 µM ([2]; Well no.=3100): 93.7%

Nc1c(/N=N/c2ccc(-c3ccc(/N=N/c4cc(S(=O)(=O)O)c5ccccc5c4N)cc3)cc2)cc(S(=O)(=O)O)c2ccccc12 [Congo Red]
remaining activity at 1.25 µM ([1]; Well no.=8614): 101% | remaining activity at 3.75 µM ([2]; Well no.=8614): 104%

Cc1nc2c([nH]1)-c1ccccc1N(C(=O)c1ccc(NC(=O)c3ccccc3-c3ccccc3)cc1)CC2 [Conivaptan (hydrochloride)]
remaining activity at 1.25 µM ([1]; Well no.=6463): 99.7% | remaining activity at 3.75 µM ([2]; Well no.=6463): 101%

c1c2c(cc3c1OCO3)-c1cc3ccc4c(c3c[n+]1CC2)OCO4 [Coptisine (chloride)]
remaining activity at 1.25 µM ([1]; Well no.=8071): 106% | remaining activity at 3.75 µM ([2]; Well no.=8071): 101%

Nc1ncnc2c1ncn2[C@@H]1O[C@H](CO)C[C@H]1O [Cordycepin]
remaining activity at 1.25 µM ([1]; Well no.=7860): 101% | remaining activity at 3.75 µM ([2]; Well no.=7860): 95.9%

C[C@]12CCC(=O)C=C1CC[C@@H]1[C@@H]2CC[C@@]2(C)[C@H]1CC[C@]2(O)C(=O)CO [Cortexolone]
remaining activity at 1.25 µM ([1]; Well no.=1509): 93.1% | remaining activity at 3.75 µM ([2]; Well no.=1509): 93%

C[C@]12C[C@H](O)[C@H]3[C@@H](CCC4=CC(=O)CC[C@@]43C)[C@@H]1CC[C@@H]2C(=O)CO [Corticosterone]
remaining activity at 1.25 µM ([1]; Well no.=285): 93.6% | remaining activity at 1.25 µM ([1]; Well no.=1928): 99.3% | remaining activity at 1.25 µM ([1]; Well no.=7075): 104% | remaining activity at 3.75 µM ([2]; Well no.=285): 92.1% | remaining activity at 3.75 µM ([2]; Well no.=1928): 96.3% | remaining activity at 3.75 µM ([2]; Well no.=7075): 105%

CC(=O)OCC(=O)[C@@]1(O)CC[C@H]2[C@@H]3CCC4=CC(=O)CC[C@]4(C)[C@H]3C(=O)C[C@@]21C [Cortisone 21-acetate]
remaining activity at 1.25 µM ([1]; Well no.=172): 92.9% | remaining activity at 3.75 µM ([2]; Well no.=172): 92.8%

CC(=O)OCC(=O)[C@@]1(O)CC[C@H]2[C@@H]3CCC4=CC(=O)CC[C@]4(C)[C@H]3C(=O)C[C@@]21C [Cortisone (acetate)]
remaining activity at 1.25 µM ([1]; Well no.=6321): 106% | remaining activity at 3.75 µM ([2]; Well no.=6321): 105%

C[C@]12CCC(=O)C=C1CC[C@@H]1[C@@H]2C(=O)C[C@@]2(C)[C@H]1CC[C@]2(O)C(=O)CO [Cortisone]
remaining activity at 1.25 µM ([1]; Well no.=381): 90.6% | remaining activity at 1.25 µM ([1]; Well no.=6485): 101% | remaining activity at 1.25 µM ([1]; Well no.=7431): 102% | remaining activity at 3.75 µM ([2]; Well no.=381): 93.5% | remaining activity at 3.75 µM ([2]; Well no.=6485): 101% | remaining activity at 3.75 µM ([2]; Well no.=7431): 100%

C[C@]12CCC(=O)C=C1CC[C@@H]1[C@@H]2CC[C@@]2(C)[C@H]1CC[C@]2(O)C(=O)CO [Cortodoxone]
remaining activity at 1.25 µM ([1]; Well no.=7330): 98.9% | remaining activity at 3.75 µM ([2]; Well no.=7330): 98%

COc1cc2c(cc1OC)[C@H]1[C@@H](C)c3ccc(OC)c(OC)c3CN1CC2 [Corydaline]
remaining activity at 1.25 µM ([1]; Well no.=3252): 101% | remaining activity at 3.75 µM ([2]; Well no.=3252): 102%
